Measured values taken from patent US9061054B2, “ErbB-2 receptor targeting peptide” (The Curators of The University of Missouri, priority 2002, dated 2015).
Numbered stars: 1 amine (or outer) side, 2 acyl side, 3 side chain; on linkers, the order of the positions; unused ones are H or OH. Bridge positions count the residues as written; N and C are the ends. Square brackets hold non-standard residues; d marks the D form. Ends that are not written are not given here. Peptide text beside a SMILES is read from it. I, II: the chains in the order shown. Actinocin(9to1) = Cc1c2oc3c(C)ccc(C(=O)[*:1])c3nc-2c(C(=O)[*:2])c(N)c1=O; NMeV = CN[C@H](C(=O)O)C(C)C; Sar = CNCC(=O)O

What was measured:
[1] = oral radioactive lomustine, about 30 mg/m^2 to 100 mg/m^2; cited from earlier work
multiple myeloma = conditions: oral administration; cited from earlier work
[2] = test system: DU-145 human prostate carcinoma cells; test: Direct cell binding assay, DU-145; format: cell-based; conditions: fixed, non-permeabilized cells; biotinylated peptide 100 μM; antibody 1:100
Procedure: (§1) Cell Binding Assay. […] When cultures reached approximately 60-70% confluence, the cells were briefly washed with PBS, fixed with 4% formaldehyde solution in PBS for 30 min but not permeabilized, and preblocked for 1 hr with 2% bovine serum albumin (BSA) solution in PBS at 37° C. The cultivation chambers were removed and cells were incubated for 2 hr with solution of Neu (9G6) anti-ErbB-2 mouse monoclonal antibody (Santa Cruz Biotechnology) diluted 1:100 and biotinylated peptide (100 μM) in 2% solution BSA in PBS. The slides were washed three times with PBS followed by 1 hr incubation with Lissamine Rhodamineconjugated donkey anti-mouse IgG (Jackson ImmunoResearch Laboratories) and streptavidin-AMCA-S conjugate (Molecular Probes) in 2% BSA in PBS. After additional washes with PBS, the slides were mounted and analyzed by fluorescent microscopy using Rhodamine and UVA filter sets.
(§2) Direct Cell Binding Assay. The ability of the p6.1 to recognize cultured human cancer cells expressing native conformation of the ErbB-2 was examined.

[3] = test system: MDA-MB-435 human breast carcinoma cells; test: Direct cell binding assay, MDA-MB-435; format: cell-based; conditions: fixed, non-permeabilized cells; biotinylated peptide 100 μM; antibody 1:100
Procedure: as §1, §2

[4] = test system: T-24 human bladder carcinoma cells; test: Direct cell binding assay, T-24 (negative control); format: cell-based; conditions: biotinylated peptide 100 μM, antibody 1:100
Procedure: Cell Binding Assay. DU-145 (human prostate adenocarcinoma), MDA-MB-435 (human breast carcinoma), and T-24 (human bladder carcinoma) cells were grown directly on the same microscope slide using a 4 well Lab-Tek II chamber slide system (Nalge Nunc). When cultures reached approximately 60-70% confluence, the cells were briefly washed with PBS, fixed with 4% formaldehyde solution in PBS for 30 min but not permeabilized, and preblocked for 1 hr with 2% bovine serum albumin (BSA) solution in PBS at 37° C. The cultivation chambers were removed and cells were incubated for 2 hr with solution of Neu (9G6) anti-ErbB-2 mouse monoclonal antibody (Santa Cruz Biotechnology) diluted 1:100 and biotinylated peptide (100 μM) in 2% solution BSA in PBS. The slides were washed three times with PBS followed by 1 hr incubation with Lissamine Rhodamineconjugated donkey anti-mouse IgG (Jackson ImmunoResearch Laboratories) and streptavidin-AMCA-S conjugate (Molecular Probes) in 2% BSA in PBS. After additional washes with PBS, the slides were mounted and analyzed by fluorescent microscopy using Rhodamine and UVA filter sets.
Direct Cell Binding Assay. The ability of the p6.1 to recognize cultured human cancer cells expressing native conformation of the ErbB-2 was examined. High levels of ErbB-2 expression on DU-145 human prostate carcinoma cells has been reported previously (Zhau et al., 1992). […]

[5] = cited from earlier work; for plasma protein binding: in vivo
ErbB-2-ECD [6] = biological target: T1, ErbB-2-ECD (Homo sapiens, UniProt P04626); test: Affinity selection of phage display library; format: binding; set-up: Purification and characterization of the recombinant extracellular domain of ErbB-2; made in house; conditions: 100 clones sequenced after four rounds of affinity selection; F3-6 library
Procedure: Affinity Selection. […] Biotinylated antigen was incubated with streptavidin coated plates for 2 hours at 4° C. In first and second round of selection 10 μg of biotinylated antigen per plate was added, in third round amount of antigen was decreased to 1 μg, and for fourth round of selection 0.1 μg of antigen was used. Unoccupied biotin-binding sites were blocked with 0.1 mM biotin. Phage was incubated with antigen for 4 hrs at RT. Plates were washed 10 times with TPBS to remove unbound phage. Bound phage was eluted with elution buffer (0.1 M HCl, pH is adjusted to 2.2 with glycine, 1 mg/ml BSA, 0.1 mg/ml phenol red) at RT during 10 min. […] After each round, except the last, the eluate of the bound phage was propagated and used as input for the next round. Individual clones were characterized by DNA sequencing after the fourth round of selection.
A random 6-amino acid peptide bacteriophage display library was affinity selected against the ErbB-2-ECD to identify novel peptide-ligands.

[7] = cited from earlier work
[8] = test system: BSA, bovine asialofetuin, and human IgG; test: Immunoblot analysis, control proteins; format: binding; conditions: 6.25-50 ng on nitrocellulose, biotinylated peptide
Description: Binding activity of p6.1 peptide.

[9] = biological target: T2, ErbB-1 receptor from human carcinoma A431 cells (Homo sapiens, UniProt P00533); test: ELISA, immobilized ErbB-1; format: binding; conditions: 100 ng protein per well; biotinylated peptide in 1:2 serial dilutions; OD 405 nm
T2 construct: ErbB-1 receptor from human carcinoma A431 cells; purchased Sigma #E-2645; host or cells: A431 human carcinoma cells (endogenous receptor, isolated by the vendor)

soluble ErbB-2-ECD = biological target: T3, soluble ErbB-2-ECD (Homo sapiens, UniProt P04626); test: Fluorescence quenching titration of ErbB-2-ECD; format: binding; conditions: saturation conditions; excited at 300 nm, monitored at 350 nm
T3 construct: Purification and characterization of the recombinant extracellular domain of ErbB-2; made in house
Procedure: Fluorescence assay. The fluorescence titration studies were carved out using a SLM Aminco spectrofluorometer interfaced to a DEL 433/L PC running SLM Aminco 8100 series 2 software. The titrations were performed at 25° C. with varying amounts of peptide added to a fixed ErbB-2-ECD concentration (200-600 nM) in 2 ml of phosphate buffered saline (pH=7.4). Each measurement was collected for 5-20 sec after 1-2 min pre-equilibration. The excitation shutter remained closed during pre-equilibration of the sample and was opened only during data acquisition in order to minimize photobleaching of the sample. The fluorescence measurements were corrected for dilutions and photobleaching of ErbB-2-ECD. Values reported are an average of three independent measurements. […]
Fluorescence quenching studies were performed in order to evaluate the equilibrium dissociation constant of p6.1 to the soluble Erb-2-ECD. Intrinsic tryptophan fluorescence of the protein was monitored as a function of peptide concentration. Since p6.1 peptide contains a tyrosine residue, samples were excited at 300 nm and monitored at 350 nm to minimize the influence of tyrosine emission on tryptophan fluorescence. […] Theoretical curves were generated for the percentage of fluorescence quenching as a function of total peptide concentration (FIG. 2C).

ErbB-2-ECD [10] = biological target: T1, ErbB-2-ECD; conditions: 6.25-50 ng protein on nitrocellulose; biotinylated peptide, 2 hrs RT
Procedure: Immunoblot analysis of binding activity of the p6.1 peptide. […] After washing three times with PBS, the membrane was incubated with 100 μg biotinylated peptide for 2 hrs at RT.
Binding activity of p6.1 peptide. The binding specificity of synthetic p6.1 peptide to recombinant ErbB-2-ECD was examined by immunoblot and ELISA procedures. Immunoblot analysis was performed to compare the binding activity of the p6.1 peptide to ErbB-2-ECD and several other non-ErbB-2 related proteins. Purified recombinant ErbB-2-ECD as well as BSA, bovine asialofetuin, and human IgG were spotted on a nitrocellulose membrane at various amounts and exposed to the biotinylated p6.1 peptide.

ErbB-2-ECD [11] = biological target: T1, ErbB-2-ECD; test: ELISA, immobilized ErbB-2-ECD
Procedure: ELISA. […] Wells were subsequently incubated with biotinylated peptide added to the wells by serial dilutions (1:2) at RT for 2 hr. […] The pNPP reaction was stopped with 3M NaOH. Optical density was measured at 405 nm in a microplate reader. All assays were performed at least three times in triplicate wells. Values are reported as an average of absorbence ±SD.

[12] = in vivo; cited from earlier work

O=NN(CCCl)C(=O)NC1CCCCC1 [Lomustine, 1-(2-chloro-ethyl)-3-cyclohexyl-1 nitrosourea]
radioactivity excreted as degradation products within 24 hours [1]: about half

N[C@@H](Cc1ccc(N(CCCl)CCCl)cc1)C(=O)O [Melphalan]
patients with multiple myeloma showing a favorable response (multiple myeloma): one third to one half

biotinylated p6.1: biotinylated analog of the p6.1 peptide KCCYSL, chemically synthesized (cysteine pairing not given here; also: biotinylated, place not given here)
binding to DU-145 cells (fluorescent microscopy) [2]: bound | binding to MDA-MB-435 cells (fluorescent microscopy) [3]: bound | binding to T-24 cells (fluorescent microscopy) [4]: Neither the Neu (9G6) anti-ErbB-2 antibody, nor the biotinylated p6.1 bound

CC[C@]1(O)C[C@@H]2CN(CCc3c([nH]c4ccccc34)[C@@](C(=O)OC)(c3cc4c(cc3OC)N(C)[C@H]3[C@@](O)(C(=O)OC)[C@H](OC(C)=O)[C@]5(CC)C=CCN6CC[C@]43[C@@H]65)C2)C1 [vinblastine]
plasma protein binding [5]: bind to plasma proteins | absorption after oral administration [5]: Unpredictable absorption

WYSWLL [p6.3]
% Of Clones (ErbB-2-ECD [6]): 10%

CC[C@]1(O)C[C@H]2CN(CCc3c([nH]c4ccccc34)[C@@](C(=O)OC)(c3cc4c(cc3OC)N(C=O)[C@H]3[C@@](O)(C(=O)OC)[C@H](OC(C)=O)[C@]5(CC)C=CCN6CC[C@]43[C@@H]65)C2)C1 [vincristine]
plasma protein binding [5]: bind to plasma proteins | absorption after oral administration [5]: Unpredictable absorption

WYAWML [p6.2]
% Of Clones (ErbB-2-ECD [6]): 8%

O=NN(CCCl)C(=O)NCCCl [Carmustine, 1,3 bis(2-chloroethyl)-1-nitrosourea]
solubility in water [7]: poorly soluble

KCCYSL [p6.1, chemically synthesized]
reaction with control proteins (immunoblot) [8]: did not react | binding activity to ErbB-1 protein (ELISA) [9]: significant dose dependent binding activity | maximum quenching of tryptophanyl fluorescence (soluble ErbB-2-ECD): 20% | binding to immobilized ErbB-2-ECD (immunoblot) (ErbB-2-ECD [10]): bound only ErbB-2 | binding activity to ErbB-2-ECD (ELISA) (ErbB-2-ECD [11]; 100 ng protein per well, biotinylated peptide in 1:2 serial dilutions, OD 405 nm): significant dose dependent binding activity | competition with Neu (9G6) antibody for the same binding site on the extracellular domain (ErbB-2-ECD [11]; experimental ELISA data): do not compete | % Of Clones (ErbB-2-ECD [6]): 75%

Cc1c2oc3c(C)ccc(C(=O)N[C@@H]4C(=O)N[C@H](C(C)C)C(=O)N5CCC[C@H]5C(=O)N(C)CC(=O)N(C)[C@@H](C(C)C)C(=O)O[C@@H]4C)c3nc-2c(C(=O)N[C@@H]2C(=O)N[C@H](C(C)C)C(=O)N3CCC[C@H]3C(=O)N(C)CC(=O)N(C)[C@@H](C(C)C)C(=O)O[C@@H]2C)c(N)c1=O [Actinomycin D] (I: T[dV]P[Sar][NMeV] / II: T[dV]P[Sar][NMeV]; ester I:1-I:C, II:1-II:C; linker I:N-II:N via Actinocin(9to1))
passage of the blood-brain barrier [12]: does not pass
